# From ChEMBL document CHEMBL1158286, “Molluscicidal Triterpenoid Glycosides of Dialium guineense” (1996)
# System: Biomphalaria glabrata
# Test: Molluscicidal activity against Biomphalaria glabrata assessed as minimum concentration required to cause mortality measured after 24 hrs
# Format: functional
row,SMILES,Activity [ppm]
1,CC1(C)CC[C@]2(C(=O)O)CC[C@]3(C)C(=CC[C@@H]4[C@@]5(C)CC[C@H](O)C(C)(C)[C@@H]5CC[C@]43C)[C@@H]2C1 [OLEANOLIC_ACID],0
2,CC1(C)CC[C@]2(C(=O)O)CC[C@]3(C)C(=CC[C@@H]4[C@@]5(C)CC[C@H](O[C@@H]6OC[C@@H](O)[C@H](O)[C@H]6O)C(C)(C)[C@@H]5CC[C@]43C)[C@@H]2C1,>16
3,C[C@@H]1O[C@@H](O[C@@H]2[C@@H](O)[C@H](O[C@H]3CC[C@]4(C)[C@H]5CC=C6[C@@H]7CC(C)(C)CC[C@]7(C(=O)O)CC[C@@]6(C)[C@]5(C)CC[C@H]4C3(C)C)O[C@H](C(=O)O)[C@H]2O)[C@H](O)[C@H](O)[C@H]1O,4
4,CC1(C)CC[C@]2(C(=O)O)CC[C@]3(C)C(=CC[C@@H]4[C@@]5(C)CC[C@H](O[C@@H]6O[C@H](C(=O)O)[C@@H](O)[C@H](O[C@@H]7OC[C@@H](O)[C@H](O)[C@H]7O)[C@H]6O)C(C)(C)[C@@H]5CC[C@]43C)[C@@H]2C1,4
5,CC1(C)CC[C@]2(C(=O)O)CC[C@]3(C)C(=CC[C@@H]4[C@@]5(C)CC[C@H](O[C@@H]6O[C@H](C(=O)O)[C@@H](O)[C@H](O)[C@H]6O)C(C)(C)[C@@H]5CC[C@]43C)[C@@H]2C1,2
